The record followed here is paper PMC6108835, “Target-Based Discovery of an Inhibitor of the Regulatory Phosphatase PPP1R15B” (Cell, 2018).

One data set relates to HD^82Q mice. The data set can be described thus: Treatment of HD^82Q (N171-82Q) mice, model of Huntington's disease. It counts as in vivo, mouse. The protocol: To produce an experimental group, HD^82Q transgenic males were crossed with C3H/B6 F1 wild-type females. 4 weeks old treatment- and test-naive transgenic mice and their wild-type littermate controls were randomized in different groups and treated with Raphin1 for the indicated time. Only males HD^82Q were used. Mice weight was collected weekly or bi-weekly.
Mice were culled by cervical dislocation, a part of cortex was extracted, fresh-frozen in liquid nitrogen and kept at −80°C until use. Tissue was homogenized and lysed in Laemmli Buffer (1 mL for 0.5 mg tissue). Lysates were boiled at 95°C for 5 min, sonicated and resolved on Bolt SDS-PAGE 4%–12% Bis-Tris gels (ThermoFisher Scientific). Proteins were transferred to the nitrocellulose membrane (Bio-Rad). Membrane was blocked in 5% skimmed milk for 30 min and then probed with primary antibodies followed by incubation with the appropriate horseradish peroxidase-conjugated secondary antibodies (Promega). Proteins were visualized using ECL Prime (GE Healthcare) and imaged in the Chemi-Smart 5000 (Vilber-Lourmat, France). SDS-resistant huntingtin assemblies were quantified using ImageJ (NIH, USA). The huntingtin assemblies were analyzed using the huntingtin 2B4 antibody (Euromedex (#HU-2B4), 1:1,000).
Mice were culled by cervical dislocation, a brain was fresh frozen in the O.C.T. compound (VWR International) and sectioned (14 μm) using Cryostat (Leica CM3050 S). […]
For quantification, motor cortex was imaged using a Nikon TiE automated fluorescence microscope under the control of NIS Elements software (Nikon UK). Images were taken using a 40X 0.95 NA lens, fluorescence filter sets matched to Hoechst 33342 and Alexa 488 and an Andor Neo sCMOS camera. […] Images were analyzed using the ‘general analysis’ tool in NIS Elements. […] The total number of nuclei per field and the total number of inclusions inside nuclei per field were counted in each filed. […] To check for systematic bias in our analysis due to variations in sample processing we also measured the average fluorescence intensity across the whole field. […]

Another data set concerns R15b −/− cells. The data set can be described thus: eIF2α phosphorylation and translation rates in R15b −/− MEF cells. To be noted: 10 μM. It counts as cell-based, mouse. The protocol: (§1) HeLa or MEF cells (90,000 cells/mL) were plated in 12-well plates (1 mL/well). The following day cells were treated as indicated; the medium was removed, fresh medium containing compound added and incubated at 37°C for the times indicated. The time course was performed in reverse order to facilitate collecting all samples at the same time. At the end of treatment cells were washed two times with ice-cold PBS and lysed in 150 μL Laemmli Buffer. Lysates were transferred to 1.5 mL eppendorf tubes, boiled at 95°C for 5 min, sonicated and resolved on Bolt SDS-PAGE 4%–12% Bis-Tris gels (ThermoFisher Scientific). Proteins were transferred to the nitrocellulose membrane using the iBlot 2 system (ThermoFisher Scientific). Membrane was blocked in 5% skimmed milk for 30 min and then probed with primary antibodies followed by incubation with the appropriate horseradish peroxidase-conjugated secondary antibodies (Promega). Proteins were visualized using ECL Prime (GE Healthcare) and imaged in the Chemi-Smart 5000 (Vilber-Lourmat, France) or ChemiDoc Touch (BioRad). Bands were quantified using ImageJ (NIH, USA). […]
HeLa or MEF cells (90,000 cells/mL) were plated in 12-well plates (1 mL/well). […] The gels were then exposed to a Storage Phosphor Screen (GE Healthcare) and analyzed by phosphorimaging using a Typhoon Imager Scanner (GE Healthcare).

A further data set concerns the target R15A (Homo sapiens, UniProt O75807). The data set can be described thus: R15A levels on immunoblots of HeLa cell lysates. The data set is classed as cell-based. More on the design: endogenous in cells; host or cells: HeLa. The settings on record: HeLa cells, Raphin1 10 μM. The protocol:
as §1
(A western blot detects proteins with antibodies after separation by electrophoresis.)

Data set [1] is described as follows: Glucose tolerance test in wild-type mice. To be noted: 2 mg/kg daily for 8 weeks. The data set is classed as in vivo, mouse. Here is the method:
Treatment- and test-naive 4 weeks old C3H/B6 males were used. Raphin1 was administered to mice daily for 8 weeks before the test. After the overnight 14 hr starvation mice were injected intraperitoneally with D-glucose (Sigma-Aldrich) at 2 g glucose/kg body weight. Right before and at the indicated time points after the injection blood samples were collected from the tail vein and the blood glucose concentration was determined using The Accu-Chek Aviva Blood Glucose Meter (Roche).

Where [2] appears, read: HD^82Q mice, 2 mg/kg daily from 4 weeks of age, 2-month-old.

Sequence of R15A (O75807 whole entry, stated change not applied): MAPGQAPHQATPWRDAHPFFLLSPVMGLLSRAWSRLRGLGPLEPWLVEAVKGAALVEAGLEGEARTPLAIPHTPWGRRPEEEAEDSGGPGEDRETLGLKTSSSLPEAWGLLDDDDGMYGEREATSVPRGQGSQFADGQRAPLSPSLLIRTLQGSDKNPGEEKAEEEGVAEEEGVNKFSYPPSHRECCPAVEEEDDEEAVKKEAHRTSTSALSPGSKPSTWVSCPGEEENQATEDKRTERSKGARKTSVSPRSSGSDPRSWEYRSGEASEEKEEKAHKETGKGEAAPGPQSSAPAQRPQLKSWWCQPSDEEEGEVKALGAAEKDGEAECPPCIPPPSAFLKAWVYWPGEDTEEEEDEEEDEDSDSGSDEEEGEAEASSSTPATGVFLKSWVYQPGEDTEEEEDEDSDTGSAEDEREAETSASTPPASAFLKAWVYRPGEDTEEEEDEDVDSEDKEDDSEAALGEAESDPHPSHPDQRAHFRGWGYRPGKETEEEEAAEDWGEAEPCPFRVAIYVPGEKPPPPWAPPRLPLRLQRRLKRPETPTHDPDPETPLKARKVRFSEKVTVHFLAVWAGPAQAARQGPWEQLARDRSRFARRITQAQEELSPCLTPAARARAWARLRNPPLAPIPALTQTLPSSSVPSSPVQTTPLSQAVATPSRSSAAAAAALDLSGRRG

In the case of `[H]/N=C(\N)NN=Cc1cccc(Cl)c1Cl` [Raphin1, (E)-2-(2,3-dichlorobenzylidene)hydrazine-1-carboximidamide], the “Weight of HD^82Q mice” value with HD^82Q mice (2 mg/kg once a day by oral gavage from 4 to ∼10 weeks of age) is reported as “improved”. Further, in the data set on HD^82Q mice (setting [2]), the “Nuclear huntingtin inclusions in the cortex” value was “decreased” and the “SDS-insoluble huntingtin assemblies in cortex” value is listed as “decreased”. Also, the “Measurable effects on eIF2α phosphorylation and translation” value in the data set on R15b −/− cells is recorded as “abolished”. For the same molecule, the “R15A levels (decrease)” value at R15A is listed as “not observed”. Besides, the “Adverse effects on glucose tolerance” value in data set [1] was “no obvious adverse effects”.
